# From patent US6878690B2, “Compounds and methods” (PharmAxis Pty Ltd., priority 2000, dated 2005)
# Several values for one entry are separate records, joined by “and”; a condition that tells them apart may be missing. Equal values may be shown once.
# How the values were obtained:
# [1] = test system: passively transferred EAE; experiment: Passively transferred EAE induced with concanavalin A stimulated spleen lymphoblasts (Example 24); format: in vivo, Lewis rats; set-up: key to Clinical score - Treated, Mean: 0 = asymptomatic to 5 = hind limb paralysis; details: for Clinical score - Treated, Mean: group mean; for Mean maximum clinical score / DI (disease index): treated group
# Experimental: In a similar type of experiment outlined in Example 20, and in order to study the effect of the agents of the present invention in vivo on a disease caused by T lymphocyte migration into a specific tissue, further experiments were performed in a Lewis rat model of passively transferred EAE. Here, myelin basic protein (MBP)-specific T lymphocytes were generated in spleens of Lewis rats that had been immunised with guinea pig MBP in Freund's complete adjuvant. Thus, in this manner donor T lymphocytes were generated from male 12-20 week old Lewis rats weighing 200 to 250 g. These rats were injected intradermally in a footpad of each hind foot with an emulsion of guinea pig myelin basic protein (MBP; prepared according to the method of Deibler et al., 1972; incorporated herein by reference) in Freund's complete adjuvant (0.1 ml). The adjuvant emulsion was prepared by emulsifying equal volumes of a mixture of 85% light mineral oil (0.8417 g/mL (Sigma)) plus 15% mannide monooleate (Sigma) containing Mycobacterium butyricum (4 mg/ml; Difco) and normal saline containing guinea pig myelin basic protein (0.25 mg/ml). Thus, the total dose per rat was 25 micrograms of MBP and 400 micrograms of M. butyricum. Ten days following injection, the rats were euthanased and the spleens removed aseptically by blunt dissection and placed into mixed lymphocyte culture medium. This medium was prepared in the normal fashion from Dulbecco's Modified Eagle's Medium (DMEM; GIBCO, Grand Island, N.Y.) supplemented with glucose (4 g/L), folic acid (6 mg/L), L-asparagine (36 mg/L), sodium bicarbonate (2 g/L), L-arginine (116 mg/L), L-glutamine (2 mM), sodium pyruvate (1 mM), HEPES (10 mM), 2-mercaptoethanol (5×10^−5 M), penicillin, streptomycin, neomycin, and 10% fetal calf serum. A single cell suspension was prepared from the spleens in the usual manner by gently pushing them through a stainless steel screen. The cells were washed twice and cultured asceptically for 72 hours at 37° C. in a humidified atmosphere containing 5% carbon dioxide at a concentration of 2 million cells per milliliter in the presence of concanavalin A (2 microgram/mL). The cells were collected and washed twice in Hanks balanced salt solution. Cells were resuspended in Hanks balanced salt solution and each recipient animal (10-12 weeks old female Lewis rats; 160-180 g) received 40-42.5 million lymphoblasts by lateral tail vein injection in a volume of 0.5 ml.
# In a typical experiment 4-5 recipient rats were anesthetised with diethyl ether and implanted with mini-osmotic pumps (Alzet 2001, Alza Corp., Palo Alto Calif., USA) containing the test compound. A second group of 4 animals, the control group, under ether anesthesia, were implanted with Alzet 2001 pumps containing normal saline. Mini-osmotic pumps were implanted three days after cell transfer. Disease severity (clinical score) was scored on an arbitrary scale of severity ranging from 0 to 5 as follows: 0, asymptomatic; 1, flaccid distal half of tail; 2, entire tail flaccid; 3, ataxia, difficulty in righting reflex; 4, hind limb weakness; 5, hind limb paralysis. Mean maximum clinical scores were calculated and the disease index (DI) for each group was calculated as described in Example 20. The results of these experiments are outlined in Tables 6, 7 and 8.
# [2] = test system: DTH response to 2,4-dinitrofluorobenzene (DNFB); experiment: Delayed-type hypersensitivity (DTH) response to DNFB, ear swelling; format: in vivo, Balb/C mice; details: for Mean percentage decrease in ear swelling in treated animals: versus saline controls; for Mean Difference, Treated: group mean; for Difference (right minus left ear), Treated / Right ear thickness, Treated / Left ear thickness, Treated: individual mice, 24 hours after challenge; for Right ear thickness, Treated: challenged ear; for Left ear thickness, Treated: control (unchallenged) ear
# From the text: In the present Example, a murine model of Type IV hypersensitivity or delayed-type hypersensitivity (DTH) response to cutaneous contact with the chemical hapten 2,4-dinitrofluorobenzene (DNFB) (Aldrich Chemical Company Inc, USA) was used as a model to measure the anti-inflammatory effects of compounds of the present invention. Specific pathogen-free 8-12 week old female Balb/C mice, weighing 19-21 g, were sensitised in a similar manner to that described by Klimuk et al., (Klimuk et al., 1999) by applying a solution of DNFB (0.5% in acetone:olive oil (4:1, v/v); 30 microliters,) onto a 2 cm^2 shaved area of the abdomen. After 7 days, the animals were anesthetised with diethyl ether and 8 microliters of DNFB (0.35% in acetone:olive oil (4:1, v/v) was applied to the dorsal and ventral surfaces of the right pinna. Prior to regaining consciousness, the mice were implanted intraperitoneally with Alzet 2001 mini-osmotic pumps (Alza Corp., Palo Alto Calif., USA) containing phosphoric acid mono-[6-(3-hexyloxy-propyl)-3,4,5-trihydroxy-tetrahydro-pyran-2-ylmethyl] ester, sodium salt in normal saline. The dose delivered was 50 mg/kg/day. Control animals for this group received saline delivered in identical mini-osmotic pumps. A second experimental group of mice received phosphoric acid mono-[3-(3,4,5-trihydroxy-6-phosphonooxymethyl-tetrahydro-pyran-2-yl)-propyl] ester disodium salt via one-week delivery Alzet 2001 mini-osmotic pumps implanted intraperitoneally. This compound was delivered at a dose of 40 mg/kg/day. Control animals for this group received saline delivered in identical mini-osmotic pumps. In a third experiment a separate group of mice received (3,4,5-trihydroxy-6-phosphonooxymethyl-tetrahydro-pyran-2-yl)-acetic acid disodium salt via one-week delivery Alzet 2001 mini-osmotic pumps that were placed intraperitoneally. This compound was delivered at 45 mg/kg/day. The control group for this experiment received identical mini-osmotic pumps containing normal saline. In a fourth experiment a group of mice received 3-phenyl-2-[2-(3,4,5-trihydroxy-6-phosphonooxymethyl-tetrahydro-pyran-2-yl)-acetylamino]-propionic acid monosodium salt via one-week delivery Alzet 2001 mini-osmotic pumps that were placed subcutaneously. This compound was delivered at 62 mg/kg/day. The control group for this experiment received identical mini-osmotic pumps containing normal saline. In a fifth experiment a group of mice received hexanoic acid 3-(3,4,5-trihydroxy-6-phosphonooxymethyl-tetrahydro-pyran-2-yl)-propyl ester sodium salt via one-week delivery Alzet 2001 mini-osmotic pumps that were placed subcutaneously. This compound was delivered at 40 mg/kg/day. The control group for this experiment received identical mini-osmotic pumps containing normal saline.
# Twenty-four hours after challenge the mice were lightly anesthetised with diethyl ether and the thickness of the left and right pinnae measured (in millimeters) using a dial gauge micrometer (Interapid, Switzerland). Care was taken to measure only the outer two thirds of the ear. The increase in ear thickness initiated by the DTH response was determined by subtracting the measurement of the left ear (untreated) from the right ear (challenged).
# In Table 4, values in the columns labeled Left and Right are measurements of ear thickness in millimeters of the control and challenged ears respectively.
# [3] = 62 mg/kg/day, mini-osmotic pump subcutaneously, monosodium salt
# [4] = 40 mg/kg/day, mini-osmotic pump intraperitoneally, disodium salt
smiles,measurement,setting,value
"O=C(CC1OC(COP(=O)(O)O)C(O)C(O)C1O)NC(Cc1ccccc1)C(=O)[O-].[Na+] (stereo not shown) [3-phenyl-2-[2-(3,4,5-trihydroxy-6-phosphonooxymethyl-tetrahydro-pyran-2-yl)-acetylamino]-propionic acid monosodium salt]","Clinical score - Treated, Mean","[1]; day 4, 62 mg/kg/day subcutaneously",0
same,Clinical score - Treated,"[1]; day 4, individual rats, 62 mg/kg/day subcutaneously, scale 0 to 5",0
same,"Clinical score - Treated, Mean","[1]; day 5, 62 mg/kg/day subcutaneously",0.8
same,Clinical score - Treated,"[1]; day 5, individual rats, 62 mg/kg/day subcutaneously, scale 0 to 5, monosodium salt, 62 mg/kg/day",0 (2×) and 1 (2×) and 2
same,"Clinical score - Treated, Mean","[1]; day 6, 62 mg/kg/day subcutaneously",0.9
same,Clinical score - Treated,"[1]; day 6, individual rats, 62 mg/kg/day subcutaneously, scale 0 to 5, monosodium salt, 62 mg/kg/day",0 and 0.5 and 1 (2×) and 2
same,"Clinical score - Treated, Mean","[1]; day 7, 62 mg/kg/day subcutaneously",0.7
same,Clinical score - Treated,"[1]; day 7, individual rats, 62 mg/kg/day subcutaneously, scale 0 to 5, monosodium salt, 62 mg/kg/day",0 (2×) and 0.5 and 1 and 2
same,"Clinical score - Treated, Mean","[1]; day 8, 62 mg/kg/day subcutaneously",0.7
same,Clinical score - Treated,"[1]; day 8, individual rats, 62 mg/kg/day subcutaneously, scale 0 to 5, monosodium salt, 62 mg/kg/day",0 (2×) and 1 (2×) and 1.5
same,"Clinical score - Treated, Mean","[1]; day 9, 62 mg/kg/day subcutaneously",0.4
same,Clinical score - Treated,"[1]; day 9, individual rats, 62 mg/kg/day subcutaneously, scale 0 to 5, monosodium salt, 62 mg/kg/day",0 (3×) and 0.5 and 1
same,"Clinical score - Treated, Mean","[1]; day 10, 62 mg/kg/day subcutaneously",0.2
same,Clinical score - Treated,"[1]; day 10, individual rats, 62 mg/kg/day subcutaneously, scale 0 to 5, monosodium salt, 62 mg/kg/day",0 (3×) and 0.5 (2×)
same,Mean maximum clinical score,"[1]; 62 mg/kg/day subcutaneously, control 1.5",clinical score 1.0
same,DI (disease index),"[1]; 62 mg/kg/day subcutaneously, control DI 14.1",DI - 8.13 Mean maximum
same,Mean percentage decrease in ear swelling in treated animals,[2]; 62 mg/kg/day subcutaneously,Mean percentage decrease in ear swelling in treated animals: 49.3%
same,"Mean Difference, Treated","[2]; 62 mg/kg/day subcutaneously, saline control mean 0.134",0.068 millimeters
same,"Difference (right minus left ear), Treated",[2]; [3],0.11 millimeters and 0.09 millimeters and 0.06 millimeters and 0.04 millimeters (2×)
same,"Right ear thickness, Treated",[2]; [3],0.33 millimeters and 0.31 millimeters and 0.29 millimeters and 0.25 millimeters (2×)
same,"Left ear thickness, Treated",[2]; [3],0.22 millimeters (2×) and 0.23 millimeters and 0.21 millimeters (2×)
"O=P([O-])([O-])OCCCC1OC(COP(=O)(O)O)C(O)C(O)C1O.[Na+].[Na+] (stereo not shown) [phosphoric acid mono-[3-(3,4,5-trihydroxy-6-phosphonooxymethyl-tetrahydro-pyran-2-yl)-propyl] ester disodium salt]","Clinical score - Treated, Mean","[1]; day 4, 40 mg/kg/day intraperitoneally",0
same,Clinical score - Treated,"[1]; day 4, individual rats, 40 mg/kg/day intraperitoneally, scale 0 to 5",0
same,"Clinical score - Treated, Mean","[1]; day 5, 40 mg/kg/day intraperitoneally",1.375
same,Clinical score - Treated,"[1]; day 5; individual rats; 40 mg/kg/day intraperitoneally; scale 0 to 5; disodium salt, 40 mg/kg/day)",2 (2×) and 0 and 1.5
same,"Clinical score - Treated, Mean","[1]; day 7, 40 mg/kg/day intraperitoneally",2.125
same,Clinical score - Treated,"[1]; day 7; individual rats; 40 mg/kg/day intraperitoneally; scale 0 to 5; disodium salt, 40 mg/kg/day)",2.5 and 1 and 3 and 2
same,"Clinical score - Treated, Mean","[1]; day 8, 40 mg/kg/day intraperitoneally",1.75
same,Clinical score - Treated,"[1]; day 8; individual rats; 40 mg/kg/day intraperitoneally; scale 0 to 5; disodium salt, 40 mg/kg/day)",2 (2×) and 0.5 and 2.5
same,"Clinical score - Treated, Mean","[1]; day 9, 40 mg/kg/day intraperitoneally",0.75
same,Clinical score - Treated,"[1]; day 9; individual rats; 40 mg/kg/day intraperitoneally; scale 0 to 5; disodium salt, 40 mg/kg/day)",1 (3×) and 0
same,"Clinical score - Treated, Mean","[1]; day 10, 40 mg/kg/day intraperitoneally",0.125
same,Clinical score - Treated,"[1]; day 10; individual rats; 40 mg/kg/day intraperitoneally; scale 0 to 5; disodium salt, 40 mg/kg/day)",0 (3×) and 0.5
same,Mean maximum clinical score,"[1]; 40 mg/kg/day intraperitoneally, control 3.0",clinical score 2.3
same,DI (disease index),"[1]; 40 mg/kg/day intraperitoneally, control DI 45.0",DI - 18.6 Mean maximum
same,Mean percentage decrease in ear swelling in treated animals,[2]; 40 mg/kg/day intraperitoneally,Mean percentage decrease in ear swelling in treated animals: 30%
same,"Mean Difference, Treated","[2]; 40 mg/kg/day intraperitoneally, saline control mean 0.086",0.060 millimeters
same,"Difference (right minus left ear), Treated",[2]; [4],0.07 millimeters and 0.03 millimeters and 0.02 millimeters and 0.06 millimeters and 0.12 millimeters
same,"Right ear thickness, Treated",[2]; [4],0.28 millimeters (2×) and 0.25 millimeters and 0.23 millimeters and 0.33 millimeters
same,"Left ear thickness, Treated",[2]; [4],0.21 millimeters (3×) and 0.22 millimeters (2×)
